# Reference: ChEMBL document CHEMBL1201862, “PubChem BioAssay data set” (2004)
# Activity calls are given as the source filed them.
# How the values were obtained:
# [1] = target: T1, RNA-binding protein pos-1 (Caenorhabditis elegans, UniProt G5EF15); assay: disruptors of C. elegans POS-1 RNA interaction – biochemical, fluorescence polarization, dose response (AID 1964);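 note: purified POS-1 fused to maltose binding protein made in E. coli; potency of compounds blocking POS-1 binding to fluorescent RNA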
# T1 sequence (G5EF15 whole entry): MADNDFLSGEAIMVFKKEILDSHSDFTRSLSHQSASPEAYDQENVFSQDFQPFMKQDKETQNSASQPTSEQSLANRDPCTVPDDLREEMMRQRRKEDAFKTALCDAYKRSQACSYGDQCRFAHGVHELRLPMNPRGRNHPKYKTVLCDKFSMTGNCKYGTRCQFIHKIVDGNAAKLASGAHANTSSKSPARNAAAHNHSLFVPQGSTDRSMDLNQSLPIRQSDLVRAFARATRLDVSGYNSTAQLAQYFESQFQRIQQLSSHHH
# [2] = target: T2, Polyadenylate-binding protein 1 (Homo sapiens, UniProt P11940); assay: MLLE binding blockers, Cy5 peptide tracer – biochemical, fluorescence polarization, Cy5-PAM2 peptide, secondary, miRNA deadenylation inhibitor project, dose response (AID 602260); format: functional; settings: read-out: IC50_Mean
# [3] = target: T2, Polyadenylate-binding protein 1; assay: MLLE domain peptide-binding blockers, IC50 – biochemical, fluorescence polarization, FITC-PAM2 peptide, dose response (AID 602259); format: functional; settings: read-out: IC50_Mean
# [4] = target: T3, Zinc finger protein mex-5 (Caenorhabditis elegans, UniProt Q9XUB2); assay: potency of MEX-5 RNA-binding blockers – biochemical, C. elegans, fluorescence polarization, dose response (AID 1960)
# T3 sequence (Q9XUB2 whole entry): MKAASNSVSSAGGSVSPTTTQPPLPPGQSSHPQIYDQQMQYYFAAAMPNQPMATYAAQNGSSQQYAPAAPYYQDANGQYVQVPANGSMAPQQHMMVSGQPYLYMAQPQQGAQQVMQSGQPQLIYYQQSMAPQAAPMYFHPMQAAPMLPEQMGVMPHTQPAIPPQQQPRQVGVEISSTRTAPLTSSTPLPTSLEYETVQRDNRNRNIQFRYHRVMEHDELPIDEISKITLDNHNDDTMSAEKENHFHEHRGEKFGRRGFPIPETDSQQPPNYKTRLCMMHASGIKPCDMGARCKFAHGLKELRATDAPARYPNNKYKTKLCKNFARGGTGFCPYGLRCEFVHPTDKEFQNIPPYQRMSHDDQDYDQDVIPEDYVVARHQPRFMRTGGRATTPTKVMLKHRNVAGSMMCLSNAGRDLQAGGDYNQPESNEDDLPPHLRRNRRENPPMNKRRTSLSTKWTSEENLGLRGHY
# Leucine aminopeptidase = target: T4, Leucine aminopeptidase (Plasmodium falciparum 3D7, UniProt Q8IL11); assay: P. falciparum M17LAP inhibitors, primary screen, biochemical, fluorogenic H-Leu-NHMec substrate, 1536-well (AID 1619); format: functional
# T4 sequence (Q8IL11 whole entry): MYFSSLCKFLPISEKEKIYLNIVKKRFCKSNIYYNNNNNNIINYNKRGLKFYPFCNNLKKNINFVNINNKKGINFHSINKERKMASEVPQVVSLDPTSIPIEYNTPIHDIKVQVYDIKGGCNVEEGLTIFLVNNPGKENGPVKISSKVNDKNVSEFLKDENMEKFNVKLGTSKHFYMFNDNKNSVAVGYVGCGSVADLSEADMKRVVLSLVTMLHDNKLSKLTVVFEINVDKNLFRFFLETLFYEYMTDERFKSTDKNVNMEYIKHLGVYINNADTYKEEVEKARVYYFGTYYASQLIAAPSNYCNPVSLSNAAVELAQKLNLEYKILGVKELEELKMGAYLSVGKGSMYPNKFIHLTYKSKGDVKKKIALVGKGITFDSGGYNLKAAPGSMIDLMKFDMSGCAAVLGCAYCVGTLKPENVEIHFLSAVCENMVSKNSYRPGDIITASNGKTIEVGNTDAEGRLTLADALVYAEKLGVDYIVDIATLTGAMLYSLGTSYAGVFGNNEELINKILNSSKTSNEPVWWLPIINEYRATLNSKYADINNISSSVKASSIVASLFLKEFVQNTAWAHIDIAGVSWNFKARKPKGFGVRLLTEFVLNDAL
# Large T antigen = Large T antigen (Simian virus 40, UniProt P03070); format: functional, Betapolyomavirus macacae;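 note: Confirmatory-stage PubChem screen for compounds that inhibit SV40 T antigen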
# [5] = target: T5, Rac GTPase-activating protein 1 (Homo sapiens, UniProt Q9H0H5); assay: blockers of MgcRacGAP-driven Rac1 GTP hydrolysis – biochemical, ADP Hunter fluorescence, primary and confirmatory, confirmation (AID 624330); format: functional
# T5 sequence (Q9H0H5 whole entry): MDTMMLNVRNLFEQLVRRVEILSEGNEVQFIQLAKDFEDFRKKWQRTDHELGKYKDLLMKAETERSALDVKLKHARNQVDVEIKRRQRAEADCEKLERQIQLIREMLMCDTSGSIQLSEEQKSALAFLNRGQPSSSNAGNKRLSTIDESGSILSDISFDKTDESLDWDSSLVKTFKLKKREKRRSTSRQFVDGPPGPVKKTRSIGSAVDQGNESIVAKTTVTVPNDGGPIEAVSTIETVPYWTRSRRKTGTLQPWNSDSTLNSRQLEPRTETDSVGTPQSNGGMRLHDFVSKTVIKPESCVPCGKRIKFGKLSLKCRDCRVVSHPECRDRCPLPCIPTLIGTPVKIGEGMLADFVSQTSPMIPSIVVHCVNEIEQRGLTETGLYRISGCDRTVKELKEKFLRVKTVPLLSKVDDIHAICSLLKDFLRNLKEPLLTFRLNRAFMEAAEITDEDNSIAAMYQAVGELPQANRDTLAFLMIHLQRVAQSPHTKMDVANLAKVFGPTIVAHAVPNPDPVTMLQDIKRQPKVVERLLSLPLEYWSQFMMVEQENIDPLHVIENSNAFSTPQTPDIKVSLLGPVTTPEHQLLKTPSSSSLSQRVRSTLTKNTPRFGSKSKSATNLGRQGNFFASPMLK
# Cytochrome P450 2C19 = Cytochrome P450 2C19 (Homo sapiens, UniProt P33261); assay: Cytochrome panel assay with activity outcomes. Panel member name: p450-cyp2c19 Compounds with AC50 equal or less than 10 uM are considered active; format: functional; settings: read-out: AC50
# Cytochrome P450 2C9 = Cytochrome P450 2C9 (Homo sapiens, UniProt P11712)
# Cytochrome P450 2D6 = Cytochrome P450 2D6 (Homo sapiens, UniProt P10635);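 note: CYP2D6 member of a cytochrome P450 panel assay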
# Protein RecA = target: T6, Protein RecA (Mycobacterium tuberculosis, UniProt P9WHJ3); assay: Fluorescence Cell-Free Homogeneous Dose Retest to Identify Inhibitors of RecA-Intein Splicing Activity. [Related pubchem assays (depositor defined):AID2097, AID2223, AID489010, AID492950]; format: functional
# T6 sequence (P9WHJ3 whole entry): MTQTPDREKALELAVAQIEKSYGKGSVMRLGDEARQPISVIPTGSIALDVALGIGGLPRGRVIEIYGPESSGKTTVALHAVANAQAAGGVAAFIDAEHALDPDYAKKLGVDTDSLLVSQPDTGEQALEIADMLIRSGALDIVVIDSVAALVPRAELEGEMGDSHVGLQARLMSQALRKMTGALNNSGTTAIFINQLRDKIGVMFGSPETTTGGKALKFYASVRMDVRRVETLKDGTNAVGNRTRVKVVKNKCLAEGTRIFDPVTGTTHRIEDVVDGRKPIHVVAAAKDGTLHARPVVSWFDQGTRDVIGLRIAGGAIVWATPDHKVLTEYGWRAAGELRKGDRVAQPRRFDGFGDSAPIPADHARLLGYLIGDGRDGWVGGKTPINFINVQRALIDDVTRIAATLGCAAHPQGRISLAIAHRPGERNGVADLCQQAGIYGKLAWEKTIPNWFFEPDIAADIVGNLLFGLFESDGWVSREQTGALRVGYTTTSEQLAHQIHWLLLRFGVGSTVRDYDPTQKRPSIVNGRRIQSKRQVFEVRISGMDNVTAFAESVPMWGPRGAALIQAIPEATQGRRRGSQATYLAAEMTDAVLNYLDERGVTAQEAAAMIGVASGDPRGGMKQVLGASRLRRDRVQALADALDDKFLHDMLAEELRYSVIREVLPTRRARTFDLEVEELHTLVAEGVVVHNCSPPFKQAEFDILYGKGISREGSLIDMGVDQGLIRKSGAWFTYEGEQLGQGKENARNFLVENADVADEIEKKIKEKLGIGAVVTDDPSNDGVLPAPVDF
# [6] = target: T7, Replicative DNA helicase DnaB (Mycobacterium tuberculosis, UniProt P9WMR3); assay: DnaB intein splicing inhibitors, dose response, biochemical, cell-free fluorescence (AID 449749); format: functional
# T7 sequence (P9WMR3 whole entry): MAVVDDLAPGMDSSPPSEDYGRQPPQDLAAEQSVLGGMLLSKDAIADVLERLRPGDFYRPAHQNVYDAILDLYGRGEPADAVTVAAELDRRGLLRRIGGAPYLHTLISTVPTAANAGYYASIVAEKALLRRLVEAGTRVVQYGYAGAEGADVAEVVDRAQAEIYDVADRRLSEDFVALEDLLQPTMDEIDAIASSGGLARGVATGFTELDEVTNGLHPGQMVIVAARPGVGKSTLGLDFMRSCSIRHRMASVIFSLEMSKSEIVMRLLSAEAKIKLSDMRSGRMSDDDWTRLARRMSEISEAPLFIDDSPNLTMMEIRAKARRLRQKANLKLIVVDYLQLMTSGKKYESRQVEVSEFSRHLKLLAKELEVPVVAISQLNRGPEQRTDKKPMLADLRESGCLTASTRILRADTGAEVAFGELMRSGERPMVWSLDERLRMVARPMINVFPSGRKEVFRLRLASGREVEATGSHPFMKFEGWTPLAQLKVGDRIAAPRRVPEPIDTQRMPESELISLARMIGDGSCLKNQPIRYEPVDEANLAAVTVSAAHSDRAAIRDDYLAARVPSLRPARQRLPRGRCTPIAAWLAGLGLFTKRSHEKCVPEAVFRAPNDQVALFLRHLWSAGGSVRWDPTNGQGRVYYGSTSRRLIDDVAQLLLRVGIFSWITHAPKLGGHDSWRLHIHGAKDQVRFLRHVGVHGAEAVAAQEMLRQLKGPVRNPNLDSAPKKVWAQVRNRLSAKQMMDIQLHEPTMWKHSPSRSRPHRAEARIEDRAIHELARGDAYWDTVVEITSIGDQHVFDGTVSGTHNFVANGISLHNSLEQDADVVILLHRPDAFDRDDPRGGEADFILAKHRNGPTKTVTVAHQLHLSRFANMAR
# Streptococcus = assay: GAS UMAA2166 growth inhibition – luminescence, BacTiterGlo, counter-screen for streptokinase expression inhibitor project, dose response (AID 1915); format: functional, organism-based;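 note: potency for reduction of bacterial viability or growth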
# Streptokinase A = target: T8, Streptokinase A (Streptococcus pyogenes serotype M1, UniProt P10520); assay: viability-normalized secreted streptokinase activity reduction – plasminogen activation absorbance, OD405, dose response (AID 1914); format: functional, Streptococcus pyogenes M1 GAS;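 note: secreted streptokinase activity via plasminogen activation per viability signal from cell pellet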
# T8 sequence (P10520 whole entry): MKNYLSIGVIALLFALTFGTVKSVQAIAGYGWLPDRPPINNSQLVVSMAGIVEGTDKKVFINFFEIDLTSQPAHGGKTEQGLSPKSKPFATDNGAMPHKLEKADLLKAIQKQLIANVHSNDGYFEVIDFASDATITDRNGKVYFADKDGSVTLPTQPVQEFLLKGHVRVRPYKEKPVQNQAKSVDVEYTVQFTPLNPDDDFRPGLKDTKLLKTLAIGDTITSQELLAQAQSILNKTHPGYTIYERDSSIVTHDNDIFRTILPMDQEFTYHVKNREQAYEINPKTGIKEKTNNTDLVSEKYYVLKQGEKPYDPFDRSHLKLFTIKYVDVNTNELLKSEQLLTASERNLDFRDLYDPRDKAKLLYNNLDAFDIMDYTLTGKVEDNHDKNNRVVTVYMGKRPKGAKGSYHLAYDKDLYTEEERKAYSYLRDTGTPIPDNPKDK
# [7] = test system: Streptococcus sp. 'group A'; assay: Streptococcus pyogenes SK(-)GAS viability under kanamycin – luminescence, BacTiterGlo, confirmation, counter-screen for streptokinase expression inhibitor project, dose response (AID 1900); format: functional, organism-based
# T2 sequence (P11940 whole entry, the tested form may be a part): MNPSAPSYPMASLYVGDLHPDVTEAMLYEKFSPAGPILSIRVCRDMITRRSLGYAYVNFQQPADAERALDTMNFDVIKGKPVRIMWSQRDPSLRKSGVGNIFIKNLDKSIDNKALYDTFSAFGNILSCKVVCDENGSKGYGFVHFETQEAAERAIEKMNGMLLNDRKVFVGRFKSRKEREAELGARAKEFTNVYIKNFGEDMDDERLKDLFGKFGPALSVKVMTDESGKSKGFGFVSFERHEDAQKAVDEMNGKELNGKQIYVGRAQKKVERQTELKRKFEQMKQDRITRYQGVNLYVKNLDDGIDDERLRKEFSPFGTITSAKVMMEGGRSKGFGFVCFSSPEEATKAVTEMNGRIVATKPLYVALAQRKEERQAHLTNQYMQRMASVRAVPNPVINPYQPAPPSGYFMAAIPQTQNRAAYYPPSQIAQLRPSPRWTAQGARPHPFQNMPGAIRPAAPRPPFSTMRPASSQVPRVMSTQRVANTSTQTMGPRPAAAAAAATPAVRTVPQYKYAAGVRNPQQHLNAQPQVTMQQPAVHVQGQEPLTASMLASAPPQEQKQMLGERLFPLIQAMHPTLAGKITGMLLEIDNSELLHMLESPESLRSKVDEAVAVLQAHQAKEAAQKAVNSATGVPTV
# Chain of Cytochrome P450 2C9 (P11712 whole entry): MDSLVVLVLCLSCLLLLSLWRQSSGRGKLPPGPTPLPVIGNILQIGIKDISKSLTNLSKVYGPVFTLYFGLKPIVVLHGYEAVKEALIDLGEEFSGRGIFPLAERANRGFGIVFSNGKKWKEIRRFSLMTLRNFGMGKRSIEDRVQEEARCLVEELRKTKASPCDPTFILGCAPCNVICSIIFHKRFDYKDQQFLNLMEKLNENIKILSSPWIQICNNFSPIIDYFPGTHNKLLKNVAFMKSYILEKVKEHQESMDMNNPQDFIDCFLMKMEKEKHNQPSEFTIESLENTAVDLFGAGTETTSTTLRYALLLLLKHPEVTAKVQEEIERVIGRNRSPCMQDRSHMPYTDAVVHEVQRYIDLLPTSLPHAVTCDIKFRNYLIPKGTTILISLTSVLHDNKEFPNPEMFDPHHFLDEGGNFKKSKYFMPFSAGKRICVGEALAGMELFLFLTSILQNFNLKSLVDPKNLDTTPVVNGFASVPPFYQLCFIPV
# Chain of Cytochrome P450 2D6 (P10635 whole entry): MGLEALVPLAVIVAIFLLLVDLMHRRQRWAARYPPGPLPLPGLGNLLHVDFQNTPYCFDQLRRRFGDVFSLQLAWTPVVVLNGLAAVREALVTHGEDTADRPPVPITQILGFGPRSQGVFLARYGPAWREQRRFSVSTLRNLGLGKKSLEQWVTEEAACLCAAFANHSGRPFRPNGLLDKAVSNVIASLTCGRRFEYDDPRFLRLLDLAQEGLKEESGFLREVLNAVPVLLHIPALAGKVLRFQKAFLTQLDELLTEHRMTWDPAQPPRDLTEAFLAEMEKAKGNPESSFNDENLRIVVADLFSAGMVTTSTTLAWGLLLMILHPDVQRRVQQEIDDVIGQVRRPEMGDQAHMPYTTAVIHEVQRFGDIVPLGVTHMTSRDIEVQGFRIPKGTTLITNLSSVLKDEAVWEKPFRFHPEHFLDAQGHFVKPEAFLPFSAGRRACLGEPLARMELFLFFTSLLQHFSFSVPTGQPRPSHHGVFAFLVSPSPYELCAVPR
# Chain of Cytochrome P450 2C19 (P33261 whole entry): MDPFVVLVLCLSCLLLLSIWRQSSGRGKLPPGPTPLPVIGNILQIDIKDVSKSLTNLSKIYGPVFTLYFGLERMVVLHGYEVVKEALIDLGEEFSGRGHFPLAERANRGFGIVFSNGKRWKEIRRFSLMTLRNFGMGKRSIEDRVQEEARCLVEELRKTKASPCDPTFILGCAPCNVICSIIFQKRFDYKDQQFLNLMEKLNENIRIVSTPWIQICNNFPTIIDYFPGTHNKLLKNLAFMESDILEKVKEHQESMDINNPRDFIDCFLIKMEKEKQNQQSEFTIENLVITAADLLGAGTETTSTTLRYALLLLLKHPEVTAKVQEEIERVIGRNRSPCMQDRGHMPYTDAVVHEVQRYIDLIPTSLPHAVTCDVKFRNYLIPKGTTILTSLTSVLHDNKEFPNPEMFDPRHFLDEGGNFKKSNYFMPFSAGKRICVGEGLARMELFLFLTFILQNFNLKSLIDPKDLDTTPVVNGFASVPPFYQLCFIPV
# Chain of Large T antigen (P03070 whole entry): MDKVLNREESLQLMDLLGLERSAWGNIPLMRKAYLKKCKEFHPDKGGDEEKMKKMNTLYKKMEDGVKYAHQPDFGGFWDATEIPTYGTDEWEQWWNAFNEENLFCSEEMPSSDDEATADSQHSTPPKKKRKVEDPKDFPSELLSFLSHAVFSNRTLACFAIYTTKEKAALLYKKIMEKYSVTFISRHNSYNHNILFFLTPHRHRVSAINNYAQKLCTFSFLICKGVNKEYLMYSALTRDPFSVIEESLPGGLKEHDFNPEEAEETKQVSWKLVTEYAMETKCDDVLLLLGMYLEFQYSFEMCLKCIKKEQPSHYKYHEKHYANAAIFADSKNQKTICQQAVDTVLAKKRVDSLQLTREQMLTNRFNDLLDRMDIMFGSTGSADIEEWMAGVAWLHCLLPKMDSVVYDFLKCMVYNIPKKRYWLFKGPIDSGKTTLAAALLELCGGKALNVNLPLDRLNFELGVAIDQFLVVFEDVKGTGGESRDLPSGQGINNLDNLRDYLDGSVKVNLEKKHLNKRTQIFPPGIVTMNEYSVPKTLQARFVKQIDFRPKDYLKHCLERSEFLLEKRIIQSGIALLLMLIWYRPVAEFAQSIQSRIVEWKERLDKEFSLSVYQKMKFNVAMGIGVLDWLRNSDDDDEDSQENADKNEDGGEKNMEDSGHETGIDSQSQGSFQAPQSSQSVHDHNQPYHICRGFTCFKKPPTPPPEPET
compound,measurement,setting,value
Nc1cccc2c1C(=O)N(Cc1nnc(-c3ccccc3Br)o1)C2=O,EC50,[1],40 µM (active)
same,IC50,[2],> 66 µM (inactive)
same,IC50,[3],48.1 µM (inactive)
same,EC50,[4],29.4 µM (active)
COC1=CC(=NCl)C=CC1=NCl,IC50,[2],> 66 µM (inactive)
same,IC50,[3],49.9 µM (inactive)
Cc1cc(C)c2c(=O)c(C#N)coc2c1,IC50,[2],> 66 µM (inactive)
same,IC50,[3],> 66 µM (inactive)
COc1ccccc1N1CCN(/N=C/c2c(C)nn(-c3ccccc3)c2C)CC1,IC50,[2],> 66 µM (inactive)
same,IC50,[3],> 66 µM (inactive)
CC(C)(C)C1CCc2c(C(=O)NNC(=O)CCCC(=O)O)csc2C1 (stereo unspecified),IC50,Leucine aminopeptidase,11.6 µM (active)
Oc1cccc(C(=S)N2CCCCC2)c1,IC50,[2],> 66 µM (inactive)
same,IC50,[3],> 66 µM (inactive)
O=C1NN(CCO)C(=S)Nc2ccccc21,IC50,[2],> 66 µM (inactive)
same,IC50,[3],> 66 µM (inactive)
O=C1C2C3C=CC(CC3)C2C(=O)N1/N=C/c1ccc(O)c(O)c1 (stereo unspecified),IC50,Leucine aminopeptidase,34.3 µM (active)
same,IC50,Large T antigen,4.4 µM (active)
same,IC50,[5],74 µM (active)
COc1ccc(CNc2nc(-c3ccccc3CN(C)C)nc3ccccc23)c(OC)c1,AC50,Cytochrome P450 2C19,15.8 µM (inconclusive)
same,AC50,Cytochrome P450 2C9,inconclusive
CCn1c(SC)nnc1C1CCN(S(=O)(=O)c2ccc(OC)cc2)CC1,AC50,Cytochrome P450 2D6,8.91 µM (inconclusive)
same,AC50,Cytochrome P450 2C9,inconclusive
Cc1ccc(-c2n[nH]c3c2C(C)C(C#N)=C(N)O3)cc1 (stereo unspecified),IC50,Leucine aminopeptidase,16.3 µM (active)
same,EC50,Protein RecA,0.518 µM (active)
same,AC50,[6],> 380 µM (inconclusive)
CS(=O)(=O)Nc1cccc(-c2cc(Nc3ccccc3)ncn2)c1,AC50,Cytochrome P450 2C19,31.6 µM (inconclusive)
same,AC50,Cytochrome P450 2D6,25.1 µM (inconclusive)
same,AC50,Cytochrome P450 2C9,inconclusive
NC(=O)c1cccc2c1-c1ccccc1/C2=N/NC(N)=S,IC50,[2],> 66 µM (inactive)
same,IC50,[3],> 66 µM (inactive)
CC(C)C1OC2c3cccc4cccc(c34)C2N1c1ccccc1 (stereo unspecified),EC50,Streptococcus,> 150 µM (not active)
same,IC50,[2],> 66 µM (inactive)
same,EC50,Streptokinase A,2.61 µM (active)
same,EC50,[7],3.22 µM (active)
same,IC50,[3],> 66 µM (inactive)
O/N=C/c1c[nH]c2ccccc12,IC50,Leucine aminopeptidase,13.2 µM (active)
